Measured values taken from patent publication EP0679394B1, “Menatetronome derivative as antiarteriosclerotic agent” (Eisai Co., Ltd., priority 1994, dated 1995).

Key:
[1] = tested on: beagles; assay: Acute (single administration) toxicity test in beagles; assay type: in vivo; conditions: Beagle F, medium 5% gum arabic
Description: (§1) Next, the results of the acute toxicity test of 2-methyl-3-[(2E,6E,10E)-3,7,11,15-tetramethyl-2,6,10,14-hexadecatetraenyl]naphthoquinone (generic name: vitamin K2), which is a typical example of the compound of the present invention, will be given. An acute toxicity test was conducted as follows:
(§2) A single administration toxicity test was effected by orally, subcutaneously and intraperitoneally administering the test compound (medium: 5% gum arabic) to SD rats, ICR mice and beagles aged 7 to 8 weeks (5 females and 5 males in each case).

[2] = as above; assay type: in vivo; conditions: dog, in vivo, Beagle M, medium 5% gum arabic
Description: as §1, §2

[3] = tested on: SD rats; assay: Acute (single administration) toxicity test in rats; assay type: in vivo; conditions: Rat F, medium 5% gum arabic
Description: as §1, §2

[4] = as above; assay type: in vivo, SD rats; conditions: in vivo, Rat M, medium 5% gum arabic
Description: as §1, §2

[5] = tested on: arteriosclerotic rats; assay: Effect of vitamin K2 on arteriosclerotic rats (vitamin D2-induced calcification); assay type: in vivo
Description: Then vitamin D2, vitamin D2 with vitamin K2 (in a low dose), and vitamin D2 with vitamin K2 (in a high dose) were given respectively to the groups A, B and C.
After feeding for five weeks, the urine of each group was sampled for a period of 20 hours and the urinary calcium, phosphorus and creatinine levels were measured.
After feeding for six weeks, the animals of each group were bled to death and the blood, aorta (from the aortic arch to the thoracic aorta) and kidneys were sampled.
The serum was separated from the blood and the serum calcium and phosphorus levels were measured.
The aorta and kidneys were defatted, dehydrated and incinerated and the calcium and phosphorus contents therein were determined.
The calcium concentrations were determined by atomic absorption spectrophotometry. The inorganic phosphorus concentrations were determined by Goldenberg's method. The creatinine concentrations were determined by the enzymatic method.
(The data of each group were compared with those of the control group according to the t-test method.)

[6] = tested on: ICR mice; assay: Acute (single administration) toxicity test in mice; assay type: in vivo; conditions: Mouse F, medium 5% gum arabic
Description: as §1, §2

[7] = as above; assay type: in vivo, ICR mice; conditions: in vivo, Mouse M, medium 5% gum arabic
Description: as §1, §2

[8] = Group A: vitamin D2 2.5 × 10^5 IU/kg/day p.o. alone, 6 weeks, n=8

## CC(C)=CCC/C(C)=C/CC/C(C)=C/CC/C(C)=C/CC1=C(C)C(=O)c2ccccc2C1=O [vitamin K2, 2-Methyl-3-[(2E,6E,10E)-3,7,11,15-tetramethyl-2,6,10,14-hexadecatetraenyl]naphthoquinone]
[1]; intraperitoneal
  LD50: >3000 mg/kg
[1]; oral
  LD50: >3000 mg/kg
[1]; subcutaneous
  LD50: >3000 mg/kg
[2]; ip, intraperitoneal
  LD50: > 3000 mg/kg
[2]; oral
  LD50: > 3000 mg/kg
[2]; sc, subcutaneous
  LD50: > 3000 mg/kg
[3]; intraperitoneal
  LD50: >5000 mg/kg
[3]; oral
  LD50: >5000 mg/kg
[3]; subcutaneous
  LD50: >5000 mg/kg
[4]; ip, intraperitoneal
  LD50: > 5000 mg/kg
[4]; oral
  LD50: > 5000 mg/kg
[4]; sc, subcutaneous
  LD50: > 5000 mg/kg
[5]; po, 10 mg/kg, 1008 h
  Aorta Ca: 5.0 ± 3.8 mg/dL
  Aorta P: 12.6 ± 12.2 mg/dL
  Kidney Ca: 3.4 ± 3.8 mg/dL
  Kidney P: 6.3 ± 2.7 mg/dL
[5]; po, 100 mg/kg, 1008 h
  Aorta Ca: 2.6 ± 3.2 mg/dL
  Aorta P: 3.7 ± 4.3 mg/dL
  Kidney Ca: 1.6 ± 1.4 mg/dL
  Kidney P: 4.5 ± 1.4 mg/dL
[6]; intraperitoneal
  LD50: >5000 mg/kg
[6]; oral
  LD50: >5000 mg/kg
[6]; subcutaneous
  LD50: >5000 mg/kg
[7]; ip, intraperitoneal
  LD50: > 5000 mg/kg
[7]; oral
  LD50: > 5000 mg/kg
[7]; sc, subcutaneous
  LD50: > 5000 mg/kg

## C=C1CC[C@H](O)C/C1=C/C=C1\CCC[C@]2(C)[C@@H]([C@H](C)/C=C/[C@H](C)C(C)C)CC[C@@H]12 [vitamin D2]
[5]; [8]
  Aorta Ca: 11.6 ± 11.1 mg/dL
  Aorta P: 10.9 ± 7.1 mg/dL
  Kidney Ca: 7.6 ± 7.8 mg/dL
  Kidney P: 7.2 ± 2.0 mg/dL
[5]; group A, vitamin D2 2.5 × 10^5 IU/kg/day p.o. alone, 6 weeks
  calcium and phosphorus contents in the aorta: significant increases
